Experimental data as given in patent US10266497B2 (ABIDE THERAPEUTICS, INC., priority 2017, dated 2019).

Experiments:
MAGL [1] = molecular target: T1, MAGL (Homo sapiens, UniProt Q99685); experiment: In vitro competitive activity-based protein profiling, MAGL, human; conditions: for inhibition at 1 µM: read-out: MAGL % inh. 1 μM (human); for inhibition at 10 µM: read-out: MAGL % inh. (human) at 10 uM
T1 sequence (Q99685 1-303): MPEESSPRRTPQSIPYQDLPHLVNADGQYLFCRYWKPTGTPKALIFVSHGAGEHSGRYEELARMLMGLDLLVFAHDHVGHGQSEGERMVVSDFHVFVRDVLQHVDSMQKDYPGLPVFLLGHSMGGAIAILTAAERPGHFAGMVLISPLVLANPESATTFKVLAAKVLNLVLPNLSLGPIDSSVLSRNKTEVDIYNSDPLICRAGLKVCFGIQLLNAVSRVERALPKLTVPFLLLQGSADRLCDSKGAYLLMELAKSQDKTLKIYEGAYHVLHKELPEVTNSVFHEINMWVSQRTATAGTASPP

MAGL [2] = molecular target: T2, MAGL (Mus musculus, UniProt O35678); experiment: In vitro competitive activity-based protein profiling, MAGL, mouse; conditions: read-out: MAGL % inh. 1 μM (mouse)
T2 sequence (O35678 1-303): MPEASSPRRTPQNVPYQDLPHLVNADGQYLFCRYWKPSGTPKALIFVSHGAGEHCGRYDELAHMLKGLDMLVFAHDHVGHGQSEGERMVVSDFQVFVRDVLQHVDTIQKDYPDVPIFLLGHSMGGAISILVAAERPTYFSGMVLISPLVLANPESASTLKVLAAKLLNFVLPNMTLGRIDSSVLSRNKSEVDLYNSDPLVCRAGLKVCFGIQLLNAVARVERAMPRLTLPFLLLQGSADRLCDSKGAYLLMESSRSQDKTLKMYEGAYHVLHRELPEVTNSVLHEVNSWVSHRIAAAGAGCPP
Experimental: Biological Evaluation In Vitro Competitive Activity-Based Protein Profiling.
Proteomes (mouse brain membrane fraction for mouse assays; human prefrontal cortex membrane fractions for human assays) (50 mL, 1.0 mg/mL total protein concentration) were preincubated with varying concentrations of inhibitors at 37° C. After 30 min, FP-Rh (1.0 mL, 50 mM in DMSO) was added and the mixture was incubated for another 30 min at 37° C. Reactions were quenched with SDS loading buffer (15 μL—4λ) and run on SDS-PAGE.

SMILES | inhibition at 1 µM (MAGL [1]) [%] | inhibition at 1 µM (MAGL [2]) [%] | inhibition at 10 µM (MAGL [1]) [%]
CC1(NCc2ccc(C(F)(F)F)cc2N2CCCC2)CCN(C(=O)n2ccc(C(=O)O)n2)CC1 [Example 361, 1-(4-methyl-4-((2-(pyrrolidin-1-yl)-4-(trifluoromethyl)benzyl)amino)piper-idine-1-carbonyl)-1H-pyrazole-3-carboxylic acid] | > 75 | > 75 | –
CN(Cc1ccc(C(F)(F)F)cc1N1CCC1)C1(C)CCN(C(=O)n2ccc(C(=O)O)n2)CC1 [Example 362, 1-(4-((2-(azetidin-1-yl)-4-(trifluoromethyl)benzyl)(methyl)amino)-4-methylpiperidine-1-carbonyl)-1H-pyrazole-3-carboxylic acid] | > 75 | > 75 | –
O=C(O)c1ccn(C(=O)N2C[C@H]3C[C@@H](NCc4ccc(Oc5ccc(Cl)cc5)cc4)C[C@H]3C2)n1 [Example 363, 1-(cis-5-((4-(4-chlorophenoxy)benzyl)amino)octa-hydrocyclopenta[c]pyrrole-2-carbonyl)-1H-pyrazole-3-carboxylic acid] | 0 to 25 | 0 to 25 | –
O=C(O)c1ccn(C(=O)N2CCC3(CCN(C(=O)c4cc(Cl)ccc4C(F)(F)F)C3)CC2)n1 [Example 366, 1-(2-(5-chloro-2-(trifluoromethyl)benzoyl)-2,8-diazaspiro[4.5]decane-8-carbonyl)-1H-pyrazole-3-carboxylic acid] | – | 0 to 25 | > 75
O=C(O)c1nn(C(=O)N2CCN(Cc3ccc(N4CCCC4)cc3C(F)(F)F)CC2)cc1Cl [Example 368, 4-chloro-1-(4-(4-(pyrrolidin-1-yl)-2-(trifluoromethyl)benzyl)piperazine-1-carbonyl)-1H-pyrazole-3-carboxylic acid] | > 75 | > 75 | –
O=C(O)c1nn(C(=O)N2C[C@H]3C[C@H](Oc4cccc(-c5ccccc5)c4)C[C@H]3C2)cc1C(F)(F)F [Example 369, 1-(trans-5-([1,1′-biphenyl]-3-yloxy)octahydro-cyclopenta[c]pyrrole-2-carbonyl)-4-(trifluoromethyl)-1H-pyrazole-3-carboxylic acid] | > 75 | > 75 | –
O=C(O)c1ccn(C(=O)N2CCC3(CCN(Cc4cc(Cl)ccc4OC(F)(F)F)C3)CC2)n1 [Example 371, 1-(2-(5-chloro-2-(trifluoromethoxy)benzyl)-2,8-diazaspiro[4.5]decane-8-carbonyl)-1H-pyrazole-3-carboxylic acid] | > 75 | > 75 | –
O=C(O)c1ccn(C(=O)N2CCC3(CCN(Cc4ccc(Cl)c(N5CCOCC5)c4)C3)CC2)n1 [Example 372, 1-(2-(4-chloro-3-morpholinobenzyl)-2,8-diazaspiro[4.5]decane-8-carbonyl)-1H-pyrazole-3-carboxylic acid] | 0 to 25 | 25 to 50 | –
C[C@H]1CN(Cc2cccc(Oc3cc(C(F)(F)F)ccn3)c2)CCN1C(=O)n1ccc(C(=O)O)n1 [Example 373, (S)-1-(2-methyl-4-(3-((4-(trifluoromethyl)pyridin-2-yl)oxy)benzyl)piper-azine-1-carbonyl)-1H-pyrazole-3-carboxylic acid] | > 75 | > 75 | –
C[C@@H]1CN(Cc2cccc(Oc3cc(C(F)(F)F)ccn3)c2)CCN1C(=O)n1ccc(C(=O)O)n1 [Example 374, (R)-1-(2-methyl-4-(3-((4-(trifluoromethyl)pyridin-2-yl)oxy)benzyl)piper-azine-1-carbonyl)-1H-pyrazole-3-carboxylic acid] | > 75 | > 75 | –
NC(=O)c1ccn(C(=O)N2CCC3(CCN(Cc4cc5ccc(C(F)(F)F)cc5s4)C3)CC2)n1 [Example 377, 1-(2-((6-(trifluoromethyl)benzo[b]thiophen-2-yl)methyl)-2,8-diazaspiro[4.5]decane-8-carbonyl)-1H-pyrazole-3-carboxamide] | 0 to 25 | 0 to 25 | –
O=C(O)c1nn(C(=O)N2CCN(Cc3cc(F)cc(Oc4ccc(Cl)cc4)c3)CC2)cc1Cl [Example 378, 4-chloro-1-(4-(3-(4-chlorophenoxy)-5-fluorobenzyl)piper-azine-1-carbonyl)-1H-pyrazole-3-carboxylic acid] | > 75 | > 75 | –
O=C(O)c1ccn(C(=O)N2CCN(Cc3ccc(N4CC5COCC5C4)cc3C(F)(F)F)CC2)n1 (stereo not shown) [Example 379, 1-(4-(4-(tetrahydro-1H-furo[3,4-c]pyrrol-5(3H)-yl)-2-(trifluoromethyl)benzyl)piperazine-1-carbonyl)-1H-pyrazole-3-carboxylic acid] | > 75 | > 75 | –
O=C(O)c1ccn(C(=O)N2CCN(Cc3ccc(C(F)(F)F)cc3N3CC4CCC(C3)O4)CC2)n1 [Example 380, 1-(4-(2-(8-oxa-3-azabicylco[3.2.1]octan-3-yl)-4-(trifluoromethyl)benzyl)piperazine-1-carbonyl)-1H-pyrazole-3-carboxylic acid] | > 75 | > 75 | –
CN(Cc1ccc(N2CCCC2)c(C(F)(F)F)c1)C1(C)CCN(C(=O)n2ccc(C(=O)O)n2)CC1 [Example 383, 1-(4-methyl-4-(methyl(4-(pyrrolidin-1-yl)-3-(trifluoromethyl)benzyl)amino)piper-idine-1-carbonyl)-1H-pyrazole-3-carboxylic acid] | > 75 | > 75 | –
Cc1cc(-c2cccc(S(C)(=O)=O)c2)ccc1CN1CCN(C(=O)n2ccc(C(=O)O)n2)[C@H](C)C1 [Example 386, (R)-1-(2-methyl-4-((3-methyl-3′-(methylsulfonyl)-[1,1′-biphenyl]-4-yl)methyl)piperazine-1-carbonyl)-1H-pyrazole-3-carboxylic acid] | 50 to 75 | > 75 | –
NC(=O)c1ccn(C(=O)N2CCC3(CCCN3C(=O)c3cc4ccc(C(F)(F)F)cc4s3)CC2)n1 [Example 389, 1-(1-(6-(trifluoromethyl)benzo[b]thiophene-2-carbonyl)-1,8-diazaspiro[4.5]decane-8-carbonyl)-1H-pyrazole-3-carboxamide] | > 75 | > 75 | –
O=C(O)c1ccn(C(=O)N2CCC3(CCN(Cc4cc(N5CCCC5)ccc4C(F)(F)F)C3)CC2)n1 [Example 391, 1-(2-(5-(pyrrolidin-1-yl)-2-(trifluoromethyl)benzyl)-2,8-diazaspiro[4.5]decane-8-carbonyl)-1H-pyrazole-3-carboxylic acid] | > 75 | > 75 | –
NC(=O)c1ccn(C(=O)N2CC3CN(Cc4ccc(C5(O)CCOCC5)cc4C(F)(F)F)CC3C2)n1 (stereo not shown) [Example 396] | > 75 | > 75 | –
Cc1cn(C(=O)N2CCC(C)(N(C)Cc3ccc(C(F)(F)F)cc3N3CCCC3)CC2)nc1C(=O)O [Example 398] | > 75 | > 75 | –
O=C(O)c1nn(C(=O)N2CCN(Cc3cccc(Oc4cc(C(F)(F)F)ccn4)c3)CC2)cc1Cl [Example 399, 4-chloro-1-(4-(3-((4-(trifluoromethyl)pyridin-2-yl)oxy)benzyl)piper-azine-1-carbonyl)-1H-pyrazole-3-carboxylic acid] | > 75 | > 75 | –
O=C(O)c1ccn(C(=O)N2CCC3(CCN(Cc4ccc(N5CC6COCC6C5)cc4Cl)C3)CC2)n1 (stereo not shown) [Example 400, 1-(2-(2-chloro-4-(tetrahydro-1H-furo[3,4-c]pyrrol-5(3H)-yl)benzyl)-2,8-diazaspiro[4.5]decane-8-carbonyl)-1H-pyrazole-3-carboxylic acid] | – | 0 to 25 | > 75
O=C(O)c1ccn(C(=O)N2CCC3(CCN(Cc4ccc(Cl)c(N5CC6COCC6C5)c4)C3)CC2)n1 (stereo not shown) [Example 401, 1-(2-(4-chloro-3-(tetrahydro-1H-furo[3,4-c]pyrrol-5(3H)-yl)benzyl)-2,8-diazaspiro[4.5]decane-8-carbonyl)-1H-pyrazole-3-carboxylic acid] | 25 to 50 | 0 to 25 | –
O=C(O)c1ccn(C(=O)N2CCC3(CCCN3Cc3ccc(C(F)(F)F)cc3N3CCOCC3)CC2)n1 [Example 405, 1-(1-(2-morpholino-4-(trifluoromethyl)benzyl)-1,8-diazaspiro[4.5]decane-8-carbonyl)-1H-pyrazole-3-carboxylic acid] | > 75 | > 75 | –
O=C(O)c1nn(C(=O)N2CCN(Cc3cc(F)cc(Oc4ccc(Cl)cc4)c3)CC2)cc1C(F)(F)F [Example 408] | > 75 | > 75 | –
O=C(O)c1nn(C(=O)N2CCN(Cc3cccc(Oc4cc(C(F)(F)F)ccn4)c3)CC2)cc1C(F)(F)F [Example 414, 4-(trifluoromethyl)-1-(4-(3-((4-(trifluoromethyl)pyridin-2-yl)oxy)benzyl)piper-azine-1-carbonyl)-1H-pyrazole-3-carboxylic acid] | > 75 | > 75 | –
